Measurements from patent publication US20240270762A1, “PENICILLIN-BINDING PROTEIN INHIBITORS” (priority 2021, published 2024).
In brackets after ≈: the same amount, converted by molar mass.

Assays:
[1] = tested on: N. gonorrhoeae FA1090; assay: Liquid broth MIC in Fastidious broth; conditions: Neisseria gonorrhoeae, FA1090, read-out: Minimum Inhibitory Concentration, FA 1090
[2] = molecular target: T1, PBP3 from Pseudomonas aeruginosa (PAO1) (Pseudomonas aeruginosa, UniProt G3XD46); assay: Bocillin-FL fluorescence polarization competition binding, P. aeruginosa PBP3; conditions: Binding affinity to P. aeruginosa PBP3; fluorescence polarization competition binding assay using Bocillin-FL; read-out: P. aeruginosa PBP3 Potency
T1 construct: made in house
T1 sequence (G3XD46 whole entry): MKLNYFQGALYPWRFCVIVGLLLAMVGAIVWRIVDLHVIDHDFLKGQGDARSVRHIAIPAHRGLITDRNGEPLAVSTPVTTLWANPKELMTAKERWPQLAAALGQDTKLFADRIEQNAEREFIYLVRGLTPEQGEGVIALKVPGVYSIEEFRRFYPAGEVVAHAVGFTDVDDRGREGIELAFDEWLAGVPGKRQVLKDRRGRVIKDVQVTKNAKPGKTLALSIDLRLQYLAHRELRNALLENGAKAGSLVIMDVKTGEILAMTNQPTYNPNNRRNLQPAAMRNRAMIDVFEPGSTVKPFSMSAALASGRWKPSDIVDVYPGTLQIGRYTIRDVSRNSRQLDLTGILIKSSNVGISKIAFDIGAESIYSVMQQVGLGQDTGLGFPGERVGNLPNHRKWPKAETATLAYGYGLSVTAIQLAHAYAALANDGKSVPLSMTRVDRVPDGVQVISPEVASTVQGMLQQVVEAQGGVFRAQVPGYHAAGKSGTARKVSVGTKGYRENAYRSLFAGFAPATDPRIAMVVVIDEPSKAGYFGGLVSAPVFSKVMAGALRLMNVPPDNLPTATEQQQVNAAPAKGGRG
Summary of the method: (§1)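 Purified PBPs pre-incubated with inhibitor (E. coli PBP3 1.5 μM, 30 min; P. aeruginosa PBP3 0.75 μM, A. baumannii PBP1a 1 μM and PBP3 0.2 μM, 15 min), then Bocillin-FL 0.1 μM (0.05 μM for PBP1a) added; FP read up to 60 min. EC50 = concentration halving bound Bocillin-FL.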

[3] = tested on: N. gonorrhoeae ATCC 49226; assay: Liquid broth MIC in Fastidious broth; conditions: Neisseria gonorrhoeae, ATCC49226, read-out: Minimum Inhibitory Concentration, ATCC 49226
[4] = tested on: N. gonorrhoeae WHO G; assay: Liquid broth MIC in Fastidious broth; conditions: Neisseria gonorrhoeae, read-out: Minimum Inhibitory Concentration, WHO G
[5] = molecular target: T2, PBP3 from Acinetobacter baumannii (ATCC 19606) (Acinetobacter baumannii, UniProt A0ABX6CK25); assay: Bocillin-FL fluorescence polarization competition binding, A. baumannii PBP3; conditions: fluorescence polarization competition binding assay using Bocillin-FL; read-out: A. baumannii PBP3 Potency
T2 sequence (A0ABX6CK25 64-610): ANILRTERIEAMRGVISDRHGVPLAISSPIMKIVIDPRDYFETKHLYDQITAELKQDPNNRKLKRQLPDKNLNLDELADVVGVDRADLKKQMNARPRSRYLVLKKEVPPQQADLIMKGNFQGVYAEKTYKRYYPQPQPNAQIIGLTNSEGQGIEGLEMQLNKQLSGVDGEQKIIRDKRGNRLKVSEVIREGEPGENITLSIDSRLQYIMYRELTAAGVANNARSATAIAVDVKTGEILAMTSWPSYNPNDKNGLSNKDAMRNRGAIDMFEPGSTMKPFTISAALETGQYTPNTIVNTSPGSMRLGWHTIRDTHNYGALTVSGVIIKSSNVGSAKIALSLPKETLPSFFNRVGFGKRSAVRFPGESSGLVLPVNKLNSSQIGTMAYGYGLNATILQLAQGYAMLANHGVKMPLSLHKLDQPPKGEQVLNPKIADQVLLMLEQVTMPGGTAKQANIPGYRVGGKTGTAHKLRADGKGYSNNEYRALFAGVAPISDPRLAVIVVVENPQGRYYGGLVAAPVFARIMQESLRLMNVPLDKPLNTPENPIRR
Summary of the method: as §1

[6] = tested on: B. thailandensis ATCC 700388; assay: microbe, parasite or virus in culture; type: cell-based; conditions: Burkholderia thailandensis, ATCC700388, read-out: Minimum inhibitory concentration (MIC), B. thailandensis ATCC 700388
[7] = tested on: P. aeruginosa ATCC 35151; assay: microbe, parasite or virus in culture; type: cell-based; conditions: Pseudomonas aeruginosa, ATCC35151, read-out: Minimum inhibitory concentration, P. aeruginosa ATCC 35151
[8] = tested on: P. aeruginosa CDC-0090; assay: microbe, parasite or virus in culture; type: cell-based; conditions: Pseudomonas aeruginosa, CDC0090, read-out: Minimum inhibitory concentration, P. aeruginosa CDC-0090
[9] = tested on: A. baumannii CDC-0033; assay: microbe, parasite or virus in culture; type: cell-based; conditions: Acinetobacter baumannii, CDC0033, read-out: MIC, A. baumannii CDC-0033
[10] = molecular target: T3, PBP3 from Escherichia coli (K-12) (Escherichia coli, UniProt P0AD68); assay: Bocillin-FL fluorescence polarization competition binding, E. coli PBP3
T3 construct: made in house
T3 sequence (P0AD68 1-577): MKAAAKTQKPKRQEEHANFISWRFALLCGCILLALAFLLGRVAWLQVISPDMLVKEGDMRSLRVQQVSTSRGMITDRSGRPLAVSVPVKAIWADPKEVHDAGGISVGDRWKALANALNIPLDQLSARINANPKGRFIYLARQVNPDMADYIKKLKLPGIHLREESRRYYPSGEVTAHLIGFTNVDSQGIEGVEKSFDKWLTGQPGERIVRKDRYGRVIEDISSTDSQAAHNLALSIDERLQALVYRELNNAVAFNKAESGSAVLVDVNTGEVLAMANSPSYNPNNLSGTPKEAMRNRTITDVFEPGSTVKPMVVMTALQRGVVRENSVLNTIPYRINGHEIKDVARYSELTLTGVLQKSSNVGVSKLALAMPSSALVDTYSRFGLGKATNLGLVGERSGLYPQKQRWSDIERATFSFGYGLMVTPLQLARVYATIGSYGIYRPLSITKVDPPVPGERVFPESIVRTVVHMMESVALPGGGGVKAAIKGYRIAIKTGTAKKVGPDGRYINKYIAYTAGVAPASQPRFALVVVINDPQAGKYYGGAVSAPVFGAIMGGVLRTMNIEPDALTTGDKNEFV
Summary of the method: as §1

[11] = tested on: P. aeruginosa CDC-0095; assay: microbe, parasite or virus in culture; type: cell-based; conditions: Pseudomonas aeruginosa, CDC0095, read-out: Minimum inhibitory concentration, P. aeruginosa CDC-0095

## O=C(NCCCS(=O)(=O)N1CCN(C(=O)NC(C(=O)N[C@H]2Cc3ccc(F)c(C(=O)O)c3OB2O)c2cc(F)c(O)c(O)c2Cl)C1=O)Nc1ccncc1 (stereo partly drawn) [Example 291, (3R)-3-(2-(2-chloro-5-fluoro-3,4-dihydroxyphenyl)-2-(2-oxo-3-((3-(3-(pyridin-4-yl)ureido)propyl)sulfonyl)imidazolidine-1-carboxamido)acetamido)-7-fluoro-2-hydroxy-3,4-dihydro-2H-benzo[e][1,2]oxaborinine-8-carboxylic acid]
[1]
  MIC: 4 to 8 µg/mL (≈ 5.03 to 10.1 µM)
[2]
  IC50: < 10 µM
[3]
  MIC: 16 to 32 µg/mL (≈ 20.1 to 40.2 µM)
[4]
  MIC: 16 to 32 µg/mL (≈ 20.1 to 40.2 µM)
[5]
  IC50: < 10 µM
[6]
  MIC: 2 to 4 µg/mL (≈ 2.51 to 5.03 µM)
[7]
  MIC: < 1 µg/mL
[8]
  MIC: 2 to 4 µg/mL (≈ 2.51 to 5.03 µM)
[9]
  MIC: 2 to 4 µg/mL (≈ 2.51 to 5.03 µM)
[10]
  EC50: < 10 µM
[11]
  MIC: > 128 µg/mL

## O=C(NCCCS(=O)(=O)N1CCN(C(=O)NC(C(=O)N[C@H]2Cc3ccc(F)c(C(=O)O)c3OB2O)c2cc(F)c(O)c(O)c2Cl)C1=O)Nc1cccnc1 (stereo partly drawn) [Example 278, (3R)-3-(2-(2-chloro-5-fluoro-3,4-dihydroxyphenyl)-2-(2-oxo-3-((3-(3-(pyridin-3-yl)ureido)propyl)sulfonyl)imidazolidine-1-carboxamido)acetamido)-7-fluoro-2-hydroxy-3,4-dihydro-2H-benzo[e][1,2]oxaborinine-8-carboxylic acid]
[1]
  MIC: 4 to 8 µg/mL (≈ 5.03 to 10.1 µM)
[2]
  IC50: < 10 µM
[3]
  MIC: 16 to 32 µg/mL (≈ 20.1 to 40.2 µM)
[4]
  MIC: 16 to 32 µg/mL (≈ 20.1 to 40.2 µM)
[5]
  IC50: < 10 µM
[6]
  MIC: 2 to 4 µg/mL (≈ 2.51 to 5.03 µM)
[7]
  MIC: < 1 µg/mL
[8]
  MIC: 2 to 4 µg/mL (≈ 2.51 to 5.03 µM)
[9]
  MIC: 8 to 16 µg/mL (≈ 10.1 to 20.1 µM)
[10]
  EC50: < 10 µM
[11]
  MIC: 8 to 16 µg/mL (≈ 10.1 to 20.1 µM)

## O=C(NCCCN1CCN(C(=O)N[C@@H](C(=O)N[C@H]2Cc3ccc(F)c(C(=O)O)c3OB2O)c2cc(F)c(O)c(O)c2Cl)C(=O)C1=O)c1ccnc(F)c1F [Example 300, (R)-3-((R)-2-(2-chloro-5-fluoro-3,4-dihydroxyphenyl)-2-(4-(3-(2,3-difluoroisonicotinamido)propyl)-2,3-dioxopiperazine-1-carboxamido)acetamido)-7-fluoro-2-hydroxy-3,4-dihydro-2H-benzo[e][1,2]oxaborinine-8-carboxylic acid]
[1]
  MIC: 4 to 8 µg/mL (≈ 5.12 to 10.2 µM)
[2]
  IC50: < 10 µM
[3]
  MIC: 16 to 32 µg/mL (≈ 20.5 to 41 µM)
[4]
  MIC: 16 to 32 µg/mL (≈ 20.5 to 41 µM)
[5]
  IC50: < 10 µM
[6]
  MIC: 2 to 4 µg/mL (≈ 2.56 to 5.12 µM)
[7]
  MIC: < 1 µg/mL
[8]
  MIC: < 1 µg/mL
[9]
  MIC: 2 to 4 µg/mL (≈ 2.56 to 5.12 µM)
[10]
  EC50: < 10 µM
[11]
  MIC: 2 to 4 µg/mL (≈ 2.56 to 5.12 µM)

## O=C(NCCCN1CCN(C(=O)NC(C(=O)N[C@H]2Cc3ccc(F)c(C(=O)O)c3OB2O)c2cc(F)c(O)c(O)c2Cl)C(=O)C1=O)c1ccc(O)c(F)c1F (stereo partly drawn) [Example 306, (3R)-3-(2-(2-chloro-5-fluoro-3,4-dihydroxyphenyl)-2-(4-(3-(2,3-difluoro-4-hydroxybenzamido)propyl)-2,3-dioxopiperazine-1-carboxamido)acetamido)-7-fluoro-2-hydroxy-3,4-dihydro-2H-benzo[e][1,2]oxaborinine-8-carboxylic acid]
[1]
  MIC: 1 to 2 µg/mL (≈ 1.26 to 2.51 µM)
[2]
  IC50: < 10 µM
[3]
  MIC: 16 to 32 µg/mL (≈ 20.1 to 40.2 µM)
[4]
  MIC: 16 to 32 µg/mL (≈ 20.1 to 40.2 µM)
[5]
  IC50: < 10 µM
[6]
  MIC: 2 to 4 µg/mL (≈ 2.51 to 5.03 µM)
[7]
  MIC: < 1 µg/mL
[8]
  MIC: < 1 µg/mL
[9]
  MIC: 2 to 4 µg/mL (≈ 2.51 to 5.03 µM)
[10]
  EC50: < 10 µM
[11]
  MIC: < 1 µg/mL

## O=C(NCCS(=O)(=O)N1CCN(C(=O)NC(C(=O)N[C@H]2Cc3ccc(F)c(C(=O)O)c3OB2O)c2cc(F)c(O)c(O)c2Cl)C1=O)c1ccncc1 (stereo partly drawn) [Example 288, (3R)-3-(2-(2-chloro-5-fluoro-3,4-dihydroxyphenyl)-2-(3-((2-(isonicotinamido)ethyl)sulfonyl)-2-oxoimidazolidine-1-carboxamido)acetamido)-7-fluoro-2-hydroxy-3,4-dihydro-2H-benzo[e][1,2]oxaborinine-8-carboxylic acid]
[1]
  MIC: 1 to 2 µg/mL (≈ 1.3 to 2.61 µM)
[2]
  IC50: < 10 µM
[3]
  MIC: 16 to 32 µg/mL (≈ 20.9 to 41.7 µM)
[4]
  MIC: 4 to 8 µg/mL (≈ 5.22 to 10.4 µM)
[5]
  IC50: < 10 µM
[6]
  MIC: 2 to 4 µg/mL (≈ 2.61 to 5.22 µM)
[7]
  MIC: < 1 µg/mL
[8]
  MIC: 2 to 4 µg/mL (≈ 2.61 to 5.22 µM)
[9]
  MIC: 8 to 16 µg/mL (≈ 10.4 to 20.9 µM)
[10]
  EC50: < 10 µM
[11]
  MIC: 8 to 16 µg/mL (≈ 10.4 to 20.9 µM)

## O=C(NCCCN1CCN(C(=O)NC(C(=O)N[C@H]2Cc3ccc(F)c(C(=O)O)c3OB2O)c2cc(F)c(O)c(O)c2Cl)C(=O)C1=O)c1ccc(O)cc1O (stereo partly drawn) [Example 307, (3R)-3-(2-(2-chloro-5-fluoro-3,4-dihydroxyphenyl)-2-(4-(3-(2,4-dihydroxybenzamido)propyl)-2,3-dioxopiperazine-1-carboxamido)acetamido)-7-fluoro-2-hydroxy-3,4-dihydro-2H-benzo[e][1,2]oxaborinine-8-carboxylic acid]
[1]
  MIC: 1 to 2 µg/mL (≈ 1.29 to 2.58 µM)
[2]
  IC50: < 10 µM
[3]
  MIC: 16 to 32 µg/mL (≈ 20.6 to 41.2 µM)
[4]
  MIC: 16 to 32 µg/mL (≈ 20.6 to 41.2 µM)
[5]
  IC50: < 10 µM
[6]
  MIC: 8 to 16 µg/mL (≈ 10.3 to 20.6 µM)
[7]
  MIC: < 1 µg/mL
[8]
  MIC: < 1 µg/mL
[9]
  MIC: 2 to 4 µg/mL (≈ 2.58 to 5.16 µM)
[10]
  EC50: < 10 µM
[11]
  MIC: < 1 µg/mL

## Cc1cnccc1C(=O)NCCCN1CCN(C(=O)NC(C(=O)N[C@H]2Cc3ccc(F)c(C(=O)O)c3OB2O)c2cc(F)c(O)c(O)c2Cl)C(=O)C1=O (stereo partly drawn) [Example 297, (3R)-3-(2-(2-chloro-5-fluoro-3,4-dihydroxyphenyl)-2-(4-(3-(3-methylisonicotinamido)propyl)-2,3-dioxopiperazine-1-carboxamido)acetamido)-7-fluoro-2-hydroxy-3,4-dihydro-2H-benzo[e][1,2]oxaborinine-8-carboxylic acid]
[1]
  MIC: 1 to 2 µg/mL (≈ 1.32 to 2.64 µM)
[2]
  IC50: < 10 µM
[3]
  MIC: 16 to 32 µg/mL (≈ 21.1 to 42.2 µM)
[4]
  MIC: 16 to 32 µg/mL (≈ 21.1 to 42.2 µM)
[5]
  IC50: < 10 µM
[6]
  MIC: 2 to 4 µg/mL (≈ 2.64 to 5.27 µM)
[7]
  MIC: < 1 µg/mL
[8]
  MIC: < 1 µg/mL
[9]
  MIC: 2 to 4 µg/mL (≈ 2.64 to 5.27 µM)
[10]
  EC50: < 10 µM
[11]
  MIC: < 1 µg/mL

## O=C(NCCN1CCN(C(=O)N[C@@H](C(=O)N[C@H]2Cc3ccc(F)c(C(=O)O)c3OB2O)c2cc(F)c(O)c(O)c2Cl)C1=O)Nc1ccc(O)cc1 [Example 279, (R)-3-((R)-2-(2-chloro-5-fluoro-3,4-dihydroxyphenyl)-2-(3-(2-(3-(4-hydroxyphenyl)ureido)ethyl)-2-oxoimidazolidine-1-carboxamido)acetamido)-7-fluoro-2-hydroxy-3,4-dihydro-2H-benzo[e][1,2]oxaborinine-8-carboxylic acid]
[1]
  MIC: < 1 µg/mL
[2]
  IC50: < 10 µM
[3]
  MIC: 4 to 8 µg/mL (≈ 5.46 to 10.9 µM)
[4]
  MIC: 4 to 8 µg/mL (≈ 5.46 to 10.9 µM)
[5]
  IC50: < 10 µM
[6]
  MIC: < 1 µg/mL
[7]
  MIC: < 1 µg/mL
[8]
  MIC: 2 to 4 µg/mL (≈ 2.73 to 5.46 µM)
[9]
  MIC: 2 to 4 µg/mL (≈ 2.73 to 5.46 µM)
[10]
  EC50: < 10 µM
[11]
  MIC: 2 to 4 µg/mL (≈ 2.73 to 5.46 µM)
